# Test results from ChEMBL document CHEMBL1201862, “PubChem BioAssay data set” (2004).
# The source made the active and inactive calls.
# How the values were obtained:
# [1] = biological target: Protein disulfide-isomerase (Homo sapiens, UniProt P07237); test: inhibition of PDI-driven insulin aggregation – biochemical, turbidity, absorbance, cherry-picked samples, dose response (AID 602350); type: functional
# [2] = biological target: Aryl hydrocarbon receptor (Homo sapiens, UniProt P35869); details: Potency;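 also: confirmatory quantitative high-throughput screen measuring activation of the AhR signaling pathway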
# Aryl hydrocarbon receptor, sequence (P35869 whole entry): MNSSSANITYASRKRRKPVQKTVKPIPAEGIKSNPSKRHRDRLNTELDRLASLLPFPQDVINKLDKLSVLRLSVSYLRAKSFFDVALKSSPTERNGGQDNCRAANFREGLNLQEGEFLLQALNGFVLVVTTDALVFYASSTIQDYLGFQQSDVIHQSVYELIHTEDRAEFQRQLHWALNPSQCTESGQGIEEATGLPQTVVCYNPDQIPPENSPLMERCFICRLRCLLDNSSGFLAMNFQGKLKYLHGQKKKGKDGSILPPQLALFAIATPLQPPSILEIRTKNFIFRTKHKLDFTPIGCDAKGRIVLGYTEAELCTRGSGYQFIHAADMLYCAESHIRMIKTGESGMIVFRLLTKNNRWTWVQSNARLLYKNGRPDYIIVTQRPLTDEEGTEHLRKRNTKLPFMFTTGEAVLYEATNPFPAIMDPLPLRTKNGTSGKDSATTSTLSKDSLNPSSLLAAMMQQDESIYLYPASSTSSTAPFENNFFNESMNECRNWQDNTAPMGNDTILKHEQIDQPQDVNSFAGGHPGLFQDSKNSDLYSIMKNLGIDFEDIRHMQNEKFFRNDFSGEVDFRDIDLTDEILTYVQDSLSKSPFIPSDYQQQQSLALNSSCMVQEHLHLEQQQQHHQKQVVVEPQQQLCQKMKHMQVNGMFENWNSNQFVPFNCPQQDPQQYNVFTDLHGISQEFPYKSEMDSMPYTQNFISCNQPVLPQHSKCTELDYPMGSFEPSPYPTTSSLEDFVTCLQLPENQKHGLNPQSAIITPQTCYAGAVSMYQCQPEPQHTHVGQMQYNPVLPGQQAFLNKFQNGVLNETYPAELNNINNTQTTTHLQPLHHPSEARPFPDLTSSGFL
# Cytochrome P450 3A4 = Cytochrome P450 3A4 (Homo sapiens, UniProt P08684); details: Potency;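 also: confirmatory qHTS run detecting inhibitors and substrates of CYP3A4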
# Cytochrome P450 3A4, sequence (P08684 whole entry): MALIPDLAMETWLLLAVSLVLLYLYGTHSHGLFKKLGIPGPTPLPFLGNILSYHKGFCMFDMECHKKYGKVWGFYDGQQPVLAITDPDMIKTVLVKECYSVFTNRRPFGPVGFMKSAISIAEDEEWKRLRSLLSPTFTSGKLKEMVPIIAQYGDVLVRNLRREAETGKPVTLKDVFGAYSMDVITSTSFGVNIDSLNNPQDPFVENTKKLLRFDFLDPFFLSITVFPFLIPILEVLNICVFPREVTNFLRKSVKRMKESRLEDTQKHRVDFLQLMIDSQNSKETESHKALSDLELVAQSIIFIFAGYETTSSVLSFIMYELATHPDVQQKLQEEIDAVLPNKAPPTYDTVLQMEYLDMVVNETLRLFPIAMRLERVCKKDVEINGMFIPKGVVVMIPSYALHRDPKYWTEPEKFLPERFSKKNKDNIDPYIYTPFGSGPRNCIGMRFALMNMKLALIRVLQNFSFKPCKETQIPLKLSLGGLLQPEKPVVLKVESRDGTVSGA
# [3] = biological target: T1, Sentrin-specific protease 8 (Homo sapiens, UniProt Q96LD8); test: inhibition of human SENP8 cleavage activity – biochemical, luminescence, SAR follow-up (AID 504501); type: functional
# T1 sequence (Q96LD8 whole entry): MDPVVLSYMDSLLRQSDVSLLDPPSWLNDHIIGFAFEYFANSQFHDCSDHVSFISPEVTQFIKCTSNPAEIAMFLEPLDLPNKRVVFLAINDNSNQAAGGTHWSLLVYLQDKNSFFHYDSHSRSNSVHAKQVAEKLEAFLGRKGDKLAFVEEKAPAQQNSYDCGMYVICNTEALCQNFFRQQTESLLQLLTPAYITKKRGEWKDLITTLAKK
# Caspase-3 = biological target: T2, Caspase-3 (Homo sapiens, UniProt P42574); test: SAR Analysis of small molecule inhibitors of Sentrin-specific proteases (SENPs) using a Caspase-3 Selectivity assay. [Related pubchem assays (depositor defined):AID2540, AID2599, AID434973, AID489001]; type: functional
# T2 sequence (P42574 whole entry): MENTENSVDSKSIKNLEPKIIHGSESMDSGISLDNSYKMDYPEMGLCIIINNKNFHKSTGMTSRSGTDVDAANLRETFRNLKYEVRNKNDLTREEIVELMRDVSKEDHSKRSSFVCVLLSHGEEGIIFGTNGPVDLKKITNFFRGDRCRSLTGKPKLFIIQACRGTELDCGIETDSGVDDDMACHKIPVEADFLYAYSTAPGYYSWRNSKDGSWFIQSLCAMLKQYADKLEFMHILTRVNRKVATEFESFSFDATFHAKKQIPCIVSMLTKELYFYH
# [4] = biological target: T3, Sentrin-specific protease 7 (Homo sapiens, UniProt Q9BQF6); test: inhibition of human SENP7 cleavage activity – biochemical, luminescence, SAR follow-up (AID 504497); type: functional
# T3 sequence (Q9BQF6 whole entry): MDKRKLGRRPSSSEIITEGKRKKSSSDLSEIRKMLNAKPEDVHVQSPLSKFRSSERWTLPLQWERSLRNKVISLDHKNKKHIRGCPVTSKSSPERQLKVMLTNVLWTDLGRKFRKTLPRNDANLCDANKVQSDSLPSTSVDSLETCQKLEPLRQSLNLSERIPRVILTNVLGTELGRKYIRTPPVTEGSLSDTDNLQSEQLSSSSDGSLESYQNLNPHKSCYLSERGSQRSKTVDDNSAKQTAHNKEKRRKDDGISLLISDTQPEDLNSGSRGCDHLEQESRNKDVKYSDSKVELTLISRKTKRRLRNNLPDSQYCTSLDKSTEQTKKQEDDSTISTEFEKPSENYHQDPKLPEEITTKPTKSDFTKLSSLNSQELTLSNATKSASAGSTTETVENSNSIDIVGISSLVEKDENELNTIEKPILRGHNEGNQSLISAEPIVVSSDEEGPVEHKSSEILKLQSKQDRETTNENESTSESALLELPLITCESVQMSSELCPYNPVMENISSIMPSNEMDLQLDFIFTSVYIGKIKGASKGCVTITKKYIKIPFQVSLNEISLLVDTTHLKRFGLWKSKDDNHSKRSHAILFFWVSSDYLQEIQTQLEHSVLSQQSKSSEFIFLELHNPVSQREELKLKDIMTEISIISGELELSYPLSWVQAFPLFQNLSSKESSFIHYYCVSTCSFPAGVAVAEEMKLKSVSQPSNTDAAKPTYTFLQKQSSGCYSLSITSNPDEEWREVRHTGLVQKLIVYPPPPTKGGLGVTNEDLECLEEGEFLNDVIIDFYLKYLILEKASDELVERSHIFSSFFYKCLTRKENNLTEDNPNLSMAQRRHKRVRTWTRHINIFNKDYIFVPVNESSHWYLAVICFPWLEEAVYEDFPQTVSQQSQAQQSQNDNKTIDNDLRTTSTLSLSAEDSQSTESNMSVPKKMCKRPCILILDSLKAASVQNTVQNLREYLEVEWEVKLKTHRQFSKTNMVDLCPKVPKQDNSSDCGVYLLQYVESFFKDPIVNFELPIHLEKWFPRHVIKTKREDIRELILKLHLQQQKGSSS
# [5] = biological target: T4, Sentrin-specific protease 6 (Homo sapiens, UniProt Q9GZR1); test: SAR Analysis of small molecule inhibitors of Sentrin-specific protease 6 (SENP6) using a Luminescent assay. [Related pubchem assays (depositor defined):AID2582, AID2599]; type: functional
# T4 sequence (Q9GZR1 whole entry): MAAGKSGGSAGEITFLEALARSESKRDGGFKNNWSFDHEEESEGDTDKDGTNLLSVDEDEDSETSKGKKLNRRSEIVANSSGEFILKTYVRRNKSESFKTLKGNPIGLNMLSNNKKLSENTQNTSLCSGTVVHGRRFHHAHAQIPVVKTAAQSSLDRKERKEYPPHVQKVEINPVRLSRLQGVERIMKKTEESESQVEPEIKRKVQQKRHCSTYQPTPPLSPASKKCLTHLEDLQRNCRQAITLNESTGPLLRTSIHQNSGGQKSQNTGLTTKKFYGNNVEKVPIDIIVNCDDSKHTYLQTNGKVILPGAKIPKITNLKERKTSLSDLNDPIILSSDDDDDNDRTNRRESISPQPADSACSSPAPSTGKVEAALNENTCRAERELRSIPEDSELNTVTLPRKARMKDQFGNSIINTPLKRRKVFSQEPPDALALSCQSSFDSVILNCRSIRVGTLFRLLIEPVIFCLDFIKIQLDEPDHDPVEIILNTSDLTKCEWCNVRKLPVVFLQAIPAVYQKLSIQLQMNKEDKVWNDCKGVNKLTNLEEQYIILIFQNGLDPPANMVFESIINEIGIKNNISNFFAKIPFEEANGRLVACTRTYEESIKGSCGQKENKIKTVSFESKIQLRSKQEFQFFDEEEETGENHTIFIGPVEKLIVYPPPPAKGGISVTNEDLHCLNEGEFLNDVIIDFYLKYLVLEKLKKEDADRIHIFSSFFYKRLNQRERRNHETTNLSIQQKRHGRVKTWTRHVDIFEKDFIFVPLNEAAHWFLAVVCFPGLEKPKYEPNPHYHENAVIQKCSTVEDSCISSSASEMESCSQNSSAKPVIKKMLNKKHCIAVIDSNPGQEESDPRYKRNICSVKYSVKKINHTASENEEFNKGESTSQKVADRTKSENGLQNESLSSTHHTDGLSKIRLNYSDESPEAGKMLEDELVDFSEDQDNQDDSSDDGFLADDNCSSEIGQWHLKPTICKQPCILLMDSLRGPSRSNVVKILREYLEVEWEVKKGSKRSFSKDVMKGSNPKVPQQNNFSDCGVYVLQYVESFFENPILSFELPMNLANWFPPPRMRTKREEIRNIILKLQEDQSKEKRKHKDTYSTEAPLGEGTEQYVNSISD
# Prothrombin = Prothrombin (Bos taurus, UniProt P00735); test: thrombin protease inhibitors – biochemical, fluorescence polarization, uHTS hits, dose response (AID 602369); type: functional
# [6] = biological target: 26S proteasome non-ATPase regulatory subunit 14 (Homo sapiens, UniProt O00487); test: inhibition of proteasome subunit RPN11 – biochemical, fluorescence polarization, uHTS hits, confirmation (AID 602368); type: functional
# [7] = biological target: 72 kDa type IV collagenase (Homo sapiens, UniProt P08253); test: Dose Response validation of uHTS RPN11 inhibitor hits using a MMP-2 Fluorescence assay.; type: functional
# 72 kDa type IV collagenase, sequence (P08253 whole entry): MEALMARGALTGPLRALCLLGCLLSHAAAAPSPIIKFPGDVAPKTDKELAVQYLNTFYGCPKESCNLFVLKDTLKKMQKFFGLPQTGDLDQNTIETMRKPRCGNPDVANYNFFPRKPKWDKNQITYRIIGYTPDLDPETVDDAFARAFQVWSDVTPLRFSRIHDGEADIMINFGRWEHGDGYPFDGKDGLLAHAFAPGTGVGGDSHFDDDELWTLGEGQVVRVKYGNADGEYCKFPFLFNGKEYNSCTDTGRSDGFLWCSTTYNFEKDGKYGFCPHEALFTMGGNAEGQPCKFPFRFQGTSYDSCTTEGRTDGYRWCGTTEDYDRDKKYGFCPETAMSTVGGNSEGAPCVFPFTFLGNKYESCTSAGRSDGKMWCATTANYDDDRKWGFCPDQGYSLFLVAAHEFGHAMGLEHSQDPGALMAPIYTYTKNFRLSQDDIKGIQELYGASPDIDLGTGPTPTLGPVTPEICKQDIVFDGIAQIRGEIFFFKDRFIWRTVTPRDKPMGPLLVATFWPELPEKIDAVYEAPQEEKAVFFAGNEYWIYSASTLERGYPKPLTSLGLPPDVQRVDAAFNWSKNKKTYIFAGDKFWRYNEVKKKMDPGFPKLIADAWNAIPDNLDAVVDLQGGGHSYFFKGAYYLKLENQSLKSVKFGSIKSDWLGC
# Nonstructural protein 1 = Nonstructural protein 1 (Influenza A virus, UniProt Q194T2); type: functional, Influenza A virus (A/California/07/2009(H1N1))
# Nonstructural protein 1, sequence (Q194T2 whole entry): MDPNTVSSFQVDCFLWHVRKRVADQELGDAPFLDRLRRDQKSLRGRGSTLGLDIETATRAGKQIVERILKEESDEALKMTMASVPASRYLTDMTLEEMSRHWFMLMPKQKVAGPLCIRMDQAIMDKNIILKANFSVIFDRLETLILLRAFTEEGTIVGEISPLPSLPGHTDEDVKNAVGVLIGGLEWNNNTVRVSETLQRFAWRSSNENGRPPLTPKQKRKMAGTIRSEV
# [8] = system: Streptococcus sp. 'group A'; test: Streptococcus pyogenes SK(-)GAS viability under kanamycin – luminescence, BacTiterGlo, confirmation, counter-screen for streptokinase expression inhibitor project, dose response (AID 1900); type: functional, organism-based
# Streptococcus = test: GAS UMAA2166 growth inhibition – luminescence, BacTiterGlo, counter-screen for streptokinase expression inhibitor project, dose response (AID 1915); type: functional, organism-based;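 also: potency for reduction of bacterial viability or growth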
# [9] = biological target: Melanin-concentrating hormone receptor 1 (Homo sapiens, UniProt Q99705); test: Late-stage fluorescence-based counterscreen for antagonists of the G-protein coupled receptor 7 (GPR7): cell-based dose response assay to identify antagonists of the melanin-concentrating hormone receptor 1 (MCHR1) Set 5.; type: functional
# Melanin-concentrating hormone receptor 1, sequence (Q99705 whole entry): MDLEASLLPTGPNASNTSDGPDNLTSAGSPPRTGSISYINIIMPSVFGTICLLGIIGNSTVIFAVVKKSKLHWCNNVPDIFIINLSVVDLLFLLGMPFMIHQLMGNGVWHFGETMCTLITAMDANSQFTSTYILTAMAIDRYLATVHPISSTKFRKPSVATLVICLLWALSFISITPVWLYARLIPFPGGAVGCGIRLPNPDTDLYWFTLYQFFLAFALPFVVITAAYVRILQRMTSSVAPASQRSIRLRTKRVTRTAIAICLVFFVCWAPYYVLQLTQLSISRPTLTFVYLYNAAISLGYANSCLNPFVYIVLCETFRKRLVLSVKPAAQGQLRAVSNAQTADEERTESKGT
# [10] = biological target: Neuropeptides B/W receptor type 1 (Homo sapiens, UniProt P48145); test: human NPBW1 receptor blockade, IC50 – cell-based, fluorescence, dose response, set 5, late-stage follow-up (AID 588566); type: functional
# Neuropeptides B/W receptor type 1, sequence (P48145 whole entry): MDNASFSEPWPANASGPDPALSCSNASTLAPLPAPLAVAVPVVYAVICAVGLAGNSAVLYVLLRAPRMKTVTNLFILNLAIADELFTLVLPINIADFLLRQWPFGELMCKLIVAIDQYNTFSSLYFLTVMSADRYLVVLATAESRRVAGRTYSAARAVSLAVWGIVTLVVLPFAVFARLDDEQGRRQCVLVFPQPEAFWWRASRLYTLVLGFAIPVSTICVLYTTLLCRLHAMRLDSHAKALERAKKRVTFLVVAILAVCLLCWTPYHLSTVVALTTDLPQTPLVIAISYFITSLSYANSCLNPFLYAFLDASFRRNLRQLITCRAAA
# [11] = biological target: Cyclin-dependent kinase 8 (Homo sapiens, UniProt P49336); test: Navigating the Kinome. Panel member name: CDK8; type: functional
# Cyclin-dependent kinase 8, sequence (P49336 whole entry): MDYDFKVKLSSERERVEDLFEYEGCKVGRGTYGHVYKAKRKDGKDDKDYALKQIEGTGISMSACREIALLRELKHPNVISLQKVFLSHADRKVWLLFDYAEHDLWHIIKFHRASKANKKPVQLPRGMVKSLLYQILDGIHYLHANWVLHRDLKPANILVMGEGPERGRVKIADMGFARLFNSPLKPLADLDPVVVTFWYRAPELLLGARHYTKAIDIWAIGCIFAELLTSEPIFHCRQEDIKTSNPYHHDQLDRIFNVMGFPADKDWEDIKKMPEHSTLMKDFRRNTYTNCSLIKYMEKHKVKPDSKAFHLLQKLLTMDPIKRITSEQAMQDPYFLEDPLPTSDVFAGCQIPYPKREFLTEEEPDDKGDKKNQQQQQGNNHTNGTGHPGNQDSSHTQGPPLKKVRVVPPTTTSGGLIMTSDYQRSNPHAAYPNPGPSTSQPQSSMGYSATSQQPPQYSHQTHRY
# [12] = biological target: Cyclin-dependent kinase 5 (Homo sapiens, UniProt Q00535); type: functional;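 also: CDK5 measured as one member of a kinase profiling panel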
# Cyclin-dependent kinase 5, sequence (Q00535 whole entry): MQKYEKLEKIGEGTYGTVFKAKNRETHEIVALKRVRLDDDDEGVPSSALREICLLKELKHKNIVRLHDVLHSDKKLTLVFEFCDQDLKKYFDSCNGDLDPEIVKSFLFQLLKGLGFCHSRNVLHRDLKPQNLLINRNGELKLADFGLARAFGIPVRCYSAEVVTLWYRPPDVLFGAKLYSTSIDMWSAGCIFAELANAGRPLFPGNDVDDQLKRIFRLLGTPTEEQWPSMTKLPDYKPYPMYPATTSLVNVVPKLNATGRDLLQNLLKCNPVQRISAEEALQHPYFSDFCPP
# [13] = biological target: T5, Apoptotic protease-activating factor 1 (Homo sapiens, UniProt O14727); test: SAR analysis of small molecule Activators of Apaf-1 in a Fluorescent assay.; type: functional; details: read-out: EC50_Mean;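 also: caspase-3 cleavage of fluorogenic Rh110 DEVD substrate downstream of apoptosome activation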
# T5 sequence (O14727 whole entry): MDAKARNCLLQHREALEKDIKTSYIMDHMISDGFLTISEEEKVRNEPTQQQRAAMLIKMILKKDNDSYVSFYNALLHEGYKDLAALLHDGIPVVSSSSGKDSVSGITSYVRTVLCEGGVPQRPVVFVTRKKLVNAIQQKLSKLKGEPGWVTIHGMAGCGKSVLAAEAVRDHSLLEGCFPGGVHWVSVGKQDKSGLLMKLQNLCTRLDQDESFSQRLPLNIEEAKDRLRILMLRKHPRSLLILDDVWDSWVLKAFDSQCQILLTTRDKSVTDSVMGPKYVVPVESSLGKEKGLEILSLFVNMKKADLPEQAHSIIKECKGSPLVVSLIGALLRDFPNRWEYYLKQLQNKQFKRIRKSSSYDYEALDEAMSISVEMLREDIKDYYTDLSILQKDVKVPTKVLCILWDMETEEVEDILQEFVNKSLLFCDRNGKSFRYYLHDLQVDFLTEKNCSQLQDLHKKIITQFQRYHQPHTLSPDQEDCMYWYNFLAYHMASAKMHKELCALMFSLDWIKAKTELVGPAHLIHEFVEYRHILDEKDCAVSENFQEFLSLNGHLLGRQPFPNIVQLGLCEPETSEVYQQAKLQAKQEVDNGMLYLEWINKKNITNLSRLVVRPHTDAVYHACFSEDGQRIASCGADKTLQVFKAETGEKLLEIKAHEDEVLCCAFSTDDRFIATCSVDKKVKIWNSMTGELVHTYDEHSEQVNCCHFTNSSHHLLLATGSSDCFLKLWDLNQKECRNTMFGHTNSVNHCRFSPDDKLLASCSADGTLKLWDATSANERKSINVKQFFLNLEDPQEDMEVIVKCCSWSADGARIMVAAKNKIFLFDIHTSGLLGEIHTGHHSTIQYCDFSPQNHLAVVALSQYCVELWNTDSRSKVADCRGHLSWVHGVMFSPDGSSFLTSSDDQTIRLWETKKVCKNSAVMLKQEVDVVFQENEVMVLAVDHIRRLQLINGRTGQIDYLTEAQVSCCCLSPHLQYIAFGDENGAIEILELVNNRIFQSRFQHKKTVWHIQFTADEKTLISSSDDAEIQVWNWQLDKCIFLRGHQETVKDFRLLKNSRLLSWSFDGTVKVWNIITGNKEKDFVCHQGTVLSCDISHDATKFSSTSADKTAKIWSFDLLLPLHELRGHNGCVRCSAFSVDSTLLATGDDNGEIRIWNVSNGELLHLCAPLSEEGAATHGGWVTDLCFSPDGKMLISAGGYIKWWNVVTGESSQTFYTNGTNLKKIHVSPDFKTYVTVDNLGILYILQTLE
# [14] = biological target: Dual specificity protein kinase CLK4 (Homo sapiens, UniProt Q9HAZ1); type: functional
# Dual specificity protein kinase CLK4, sequence (Q9HAZ1 whole entry, the tested form may be a part): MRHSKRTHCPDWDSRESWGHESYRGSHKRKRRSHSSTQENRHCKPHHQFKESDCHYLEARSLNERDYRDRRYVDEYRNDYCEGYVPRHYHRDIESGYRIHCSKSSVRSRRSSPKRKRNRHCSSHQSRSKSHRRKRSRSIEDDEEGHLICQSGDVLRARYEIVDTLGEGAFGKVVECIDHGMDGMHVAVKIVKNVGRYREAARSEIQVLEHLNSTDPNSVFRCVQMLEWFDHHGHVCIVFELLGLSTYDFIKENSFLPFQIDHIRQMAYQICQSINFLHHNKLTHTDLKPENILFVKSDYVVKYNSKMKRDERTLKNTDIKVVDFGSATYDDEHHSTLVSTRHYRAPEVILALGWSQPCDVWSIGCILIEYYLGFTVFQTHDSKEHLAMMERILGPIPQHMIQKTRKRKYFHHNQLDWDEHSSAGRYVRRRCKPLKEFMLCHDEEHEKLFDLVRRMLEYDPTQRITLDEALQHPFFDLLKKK
# [15] = inhibition of ARNT PAS-B/TACC3 complex formation – biochemical, AlphaScreen, cherry-picked samples, confirmation (AID 651703); type: functional, Homo sapiens;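 also: His-tagged ARNT PAS-B domain paired with GST-TACC3 E629A dimer coactivator fragment; potency of inhibitors that break up the complex and lower AlphaScreen signal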
# Protein disulfide-isomerase, sequence (P07237 whole entry): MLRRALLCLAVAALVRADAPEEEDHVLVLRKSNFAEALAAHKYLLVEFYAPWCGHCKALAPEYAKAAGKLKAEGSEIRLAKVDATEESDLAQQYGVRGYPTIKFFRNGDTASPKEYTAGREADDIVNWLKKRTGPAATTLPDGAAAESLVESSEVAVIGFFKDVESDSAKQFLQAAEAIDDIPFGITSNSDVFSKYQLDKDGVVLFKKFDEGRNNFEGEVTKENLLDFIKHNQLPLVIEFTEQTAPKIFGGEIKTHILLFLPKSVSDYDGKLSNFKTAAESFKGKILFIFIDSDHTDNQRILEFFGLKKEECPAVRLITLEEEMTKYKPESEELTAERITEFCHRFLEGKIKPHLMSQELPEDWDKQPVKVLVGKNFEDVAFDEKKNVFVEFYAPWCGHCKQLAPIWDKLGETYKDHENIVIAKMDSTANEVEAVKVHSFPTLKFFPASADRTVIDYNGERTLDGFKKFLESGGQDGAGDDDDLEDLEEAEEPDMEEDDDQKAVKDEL
smiles,measurement,setting,value
O=C1NC[C@H](Cc2ccc(O)cc2)N(CC2CCCCC2)C1=O,AC50,[1],19.5 µM (active)
COc1cccc2sc(N)nc12,AC50,[2],50.1 µM (inconclusive)
same,AC50,Cytochrome P450 3A4,15.8 µM (inconclusive)
COc1cc2cc(NC(C)=O)cc(NCCCO)c2cc1OC,IC50,[3],56 µM (active)
same,IC50,Caspase-3,37.7 µM (active)
same,IC50,[4],29.3 µM (active)
same,IC50,[5],16.9 µM (active)
CC(C)CC(=O)Nc1ccc2nc(NC(=O)c3ccccc3)sc2c1,IC50,[3],6.63 µM (active)
same,IC50,Caspase-3,7.24 µM (active)
same,IC50,[4],3.07 µM (active)
same,IC50,[5],6.09 µM (active)
C[C@H](CO)N1C[C@H](C)[C@@H](CN(C)Cc2ccc(Oc3ccccc3)cc2)Oc2c(NS(C)(=O)=O)cccc2C1=O,AC50,[1],19.5 µM (active)
O=[N+]([O-])c1ccc(O)c(/N=C/c2sc3ccccc3c2O)c1,IC50,Prothrombin,2.57 µM (active)
same,IC50,[6],3.28 µM (active)
same,IC50,[7],> 100 µM (inactive)
same,IC50,Nonstructural protein 1,> 100 µM (active)
same,EC50,[8],5.2 µM (active)
same,EC50,Streptococcus,9.08 µM (active)
N#Cc1ccccc1C(C#N)c1c(Cl)cnn(Cc2cccc3ccccc23)c1=O (stereo not drawn),IC50,[9],9.7 µM (active)
same,IC50,[10],0.782 µM (active)
C=C1c2ccccc2CC(CCN(C)C)c2ccccc21 (stereo not drawn),Ki,[11],1.26 µM (active)
same,Ki,[12],3.16 µM (active)
CC(Nc1ccccc1)C(=O)O (stereo not drawn),EC50,[13],> 100 µM (inactive)
COc1ccc(CCN(C)C(=O)CCc2ccc(Cl)c(Cl)c2)cc1OC,Ki,[11],2.51 µM (active)
same,Ki,[14],2 µM (active)
O=c1c(Oc2ccc3cc[nH]c3c2)c(Cl)cnn1Cc1cccc2ccccc12,IC50,[9],18.6 µM (inactive)
same,IC50,[10],1.01 µM (active)
Cn1c(-c2ccccc2)cnc1NC(=O)c1cc(-c2ccccc2)on1,AC50,[15],117 µM (active)
